Measurements taken from the Kinase Knowledgebase extract (Sharma et al. 2016).

Biological target: PIK3CA (human) (UniProt P42336)
Assay: Assessment of PIK3CA Kinase Activity

Sequence of PIK3CA (human) (P42336 whole entry, looked up): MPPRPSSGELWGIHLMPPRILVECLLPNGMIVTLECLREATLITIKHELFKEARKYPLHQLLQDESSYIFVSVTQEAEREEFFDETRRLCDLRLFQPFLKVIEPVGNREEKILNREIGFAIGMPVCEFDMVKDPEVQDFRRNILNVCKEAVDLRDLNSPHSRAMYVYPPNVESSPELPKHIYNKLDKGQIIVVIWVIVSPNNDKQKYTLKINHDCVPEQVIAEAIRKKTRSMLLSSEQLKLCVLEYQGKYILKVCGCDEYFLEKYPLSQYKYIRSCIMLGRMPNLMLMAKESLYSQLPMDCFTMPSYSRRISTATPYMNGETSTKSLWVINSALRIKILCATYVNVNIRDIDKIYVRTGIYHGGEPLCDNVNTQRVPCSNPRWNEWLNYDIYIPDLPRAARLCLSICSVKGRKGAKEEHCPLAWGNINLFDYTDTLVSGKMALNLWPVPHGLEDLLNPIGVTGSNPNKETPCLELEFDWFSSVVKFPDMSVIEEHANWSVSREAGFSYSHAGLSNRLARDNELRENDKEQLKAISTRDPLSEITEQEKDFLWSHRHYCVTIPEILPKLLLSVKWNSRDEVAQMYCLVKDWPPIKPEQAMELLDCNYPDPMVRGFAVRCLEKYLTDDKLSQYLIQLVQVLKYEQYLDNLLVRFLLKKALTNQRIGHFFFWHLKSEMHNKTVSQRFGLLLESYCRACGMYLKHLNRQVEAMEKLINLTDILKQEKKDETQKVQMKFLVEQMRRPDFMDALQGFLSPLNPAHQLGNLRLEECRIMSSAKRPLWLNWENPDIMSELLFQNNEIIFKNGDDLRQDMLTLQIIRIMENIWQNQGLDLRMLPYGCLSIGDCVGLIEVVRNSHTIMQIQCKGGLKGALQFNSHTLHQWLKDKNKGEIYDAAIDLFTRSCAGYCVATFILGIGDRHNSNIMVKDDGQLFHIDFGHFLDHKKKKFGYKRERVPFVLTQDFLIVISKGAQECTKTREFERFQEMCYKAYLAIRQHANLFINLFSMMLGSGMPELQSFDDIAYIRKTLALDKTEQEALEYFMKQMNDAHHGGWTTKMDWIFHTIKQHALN

SMILES | IC50 [nM]
CN(Cc1cc2nc(-c3cccc4[nH]ncc34)nc(N3CCOCC3)c2s1)CC1CCN(c2ncc(C(=O)NO)cn2)CC1 | < 100
COc1ccccc1Nc1nc(-c2cccc3[nH]ncc23)nc2cc(CN(C)c3ncc(C(=O)NO)cn3)sc12 | 100 to 1000
O=C(NO)c1cnc(N2CCC(CNCc3cc4nc(-c5cccc6[nH]ncc56)nc(N5CCOCC5)c4s3)CC2)nc1 | 100 to 1000
CC(c1cc2nc(-c3cccc4[nH]ncc34)nc(N3CCOCC3)c2s1)N(C)c1ncc(C(=O)NO)cn1 (stereo unspecified) | < 100
CN(C)c1ccc(-c2nc(N3CCOCC3)c3sc(CN(C)c4ncc(C(=O)NO)cn4)cc3n2)cn1 | 100 to 1000
NC(=O)CN(Cc1cc2nc(-c3cccc4[nH]ncc34)nc(N3CCOCC3)c2s1)c1ncc(C(=O)NO)cn1 | < 100
CN(CCCCCC(=O)NO)Cc1cc2nc(-c3cccc4[nH]ncc34)nc(N3CCOCC3)c2s1 | 100 to 1000
O=C(CCCCCNc1cc2nc(-c3cccc4[nH]ncc34)nc(N3CCOCC3)c2s1)NO | 100 to 1000
O=C(NO)c1cnc(NCc2cc3cc(-c4cccc5[nH]ncc45)nc(N4CCOCC4)c3s2)nc1 | 100 to 1000
CN(Cc1cc2nc(-c3cccc(O)c3)nc(N3CCOCC3)c2s1)c1ncc(C(=O)NO)cn1 | < 100
NCCN(Cc1cc2nc(-c3cccc4[nH]ncc34)nc(N3CCOCC3)c2s1)c1ncc(C(=O)NO)cn1 | < 100
O=C(/C=C/c1ccc(NCc2cc3nc(-c4cccc5[nH]ncc45)nc(N4CCOCC4)c3s2)cc1)NO | < 100
CN(Cc1cc2nc(-c3cccc(N)c3)nc(N3CCOCC3)c2s1)c1ncc(C(=O)NO)cn1 | 100 to 1000
CN(Cc1cc2nc(-c3cn[nH]c3)nc(N3CCOCC3)c2s1)c1ncc(C(=O)NO)cn1 | 100 to 1000
CN(Cc1cc2nc(-c3cccc4[nH]ncc34)nc(NCCO)c2s1)c1ncc(C(=O)NO)cn1 | 100 to 1000
CN(CCCC(=O)NO)Cc1cc2nc(-c3cccc4[nH]ncc34)nc(N3CCOCC3)c2s1 | 100 to 1000
CNc1ncc(-c2nc(N3CCOCC3)c3sc(CN(C)c4ncc(C(=O)NO)cn4)cc3n2)cn1 | < 100
CN(Cc1cc2nc(-c3cc[nH]c3)nc(N3CCOCC3)c2s1)c1ncc(C(=O)NO)cn1 | < 100
CC(=O)NCCN(Cc1cc2nc(-c3cccc4[nH]ncc34)nc(N3CCOCC3)c2s1)c1ncc(C(=O)NO)cn1 | < 100

SMILES | IC50 [nM]
CN(Cc1cc2nc(-c3cccc(C(N)=O)c3)nc(N3CCOCC3)c2s1)c1ncc(C(=O)NO)cn1 | 100 to 1000
Cc1ncc(-c2nc(N3CCOCC3)c3sc(CN(C)c4ncc(C(=O)NO)cn4)cc3n2)cn1 | < 100
CC(=O)Nc1ccc(-c2nc(N3CCOCC3)c3sc(CN(C)c4ncc(C(=O)NO)cn4)cc3n2)cn1 | < 100
CN(Cc1cc2nc(-c3cccnc3)nc(N3CCOCC3)c2s1)c1ncc(C(=O)NO)cn1 | < 100
CN(C)CCN(Cc1cc2nc(-c3cccc4[nH]ncc34)nc(N3CCOCC3)c2s1)c1ncc(C(=O)NO)cn1 | < 100
O=C(C=Cc1cc2nc(-c3cccc4[nH]ncc34)nc(N3CCOCC3)c2s1)NO | 100 to 1000
Cc1c(CN(C)c2ncc(C(=O)NO)cn2)sc2c(N3CCOCC3)nc(-c3cccc4[nH]ncc34)nc12 | 100 to 1000
CN(CCCCCCC(=O)NO)Cc1cc2nc(-c3cccc4[nH]ncc34)nc(N3CCOCC3)c2s1 | < 100
O=C(NO)c1cnc(N(CCCO)Cc2cc3nc(-c4cccc5[nH]ncc45)nc(N4CCOCC4)c3s2)nc1 | < 100
CN(Cc1cc2nc(-c3ccc(N)cc3)nc(N3CCOCC3)c2s1)c1ccc(C(=O)NO)cc1 | 100 to 1000
CC1CN(c2nc(-c3cccc4[nH]ncc34)nc3cc(CN(C)c4ncc(C(=O)NO)cn4)sc23)CC(C)O1 (stereo unspecified) | 100 to 1000
CC(=O)OCCN(Cc1cc2nc(-c3cccc4[nH]ncc34)nc(N3CCOCC3)c2s1)c1ncc(C(=O)NO)cn1 | < 100
CN(Cc1cc2nc(-c3cc(F)cc4[nH]ncc34)nc(N3CCOCC3)c2s1)c1ncc(C(=O)NO)cn1 | < 100
CN(Cc1cc2nc(-c3cccc4[nH]ncc34)nc(N3CCCCC3)c2s1)c1ncc(C(=O)NO)cn1 | 100 to 1000
CC1COCC(C)N1c1nc(-c2cccc3[nH]ncc23)nc2cc(CN(C)c3ncc(C(=O)NO)cn3)sc12 (stereo unspecified) | 100 to 1000
CN(Cc1cc2nc(-c3cccc4[nH]ncc34)nc(N3CCOCC3)c2s1)c1ccc(/C=C/C(=O)NO)cc1 | < 100
Nc1ccc(-c2nc(N3CCOCC3)c3sc(CNc4ncc(C(=O)NO)cn4)cc3n2)cc1 | 100 to 1000
O=C(NO)c1cnc(N2CCN(S(=O)(=O)c3cc4nc(-c5cccc6[nH]ncc56)nc(N5CCOCC5)c4s3)CC2)nc1 | < 100

Other lines, results leading:

IC50 [nM] | SMILES
100 to 1000 | Nc1ccc(-c2nc(N3CCOCC3)c3sc(CN4CCN(c5ncc(C(=O)NO)cn5)CC4)cc3n2)cc1
< 100 | Cn1cc(CNc2cc3nc(-c4cccc5[nH]ncc45)nc(N4CCOCC4)c3s2)c2cc(C(=O)NO)ccc21
< 100 | CN(Cc1cc2nc(-c3cccc4[nH]ncc34)nc(N3CCOCC3)c2s1)c1ncc(C=CC(=O)NO)cn1
< 100 | C#CCCN(Cc1cc2nc(-c3cccc4[nH]ncc34)nc(N3CCOCC3)c2s1)c1ncc(C(=O)NO)cn1
100 to 1000 | CC(C)CN(Cc1cc2nc(-c3cccc4[nH]ncc34)nc(N3CCOCC3)c2s1)c1ncc(C(=O)NO)cn1
< 100 | CCc1ncc(-c2nc(N3CCOCC3)c3sc(CN(C)c4ncc(C(=O)NO)cn4)cc3n2)cn1
100 to 1000 | CC(C)(C)CN(Cc1cc2nc(-c3cccc4[nH]ncc34)nc(N3CCOCC3)c2s1)c1ncc(C(=O)NO)cn1
< 100 | CN(Cc1cc2nc(-c3ccc(N)cc3)nc(N3CCOCC3)c2s1)c1ncc(C(=O)NO)cn1
< 100 | CCCN(Cc1cc2nc(-c3cccc4[nH]ncc34)nc(N3CCOCC3)c2s1)c1ncc(C(=O)NO)cn1
< 100 | CC(=O)Nc1ccc(-c2nc(N3CCOCC3)c3sc(CN(C)c4ncc(C(=O)NO)cn4)cc3n2)cc1
< 100 | CN(Cc1cc2nc(-c3cccc4[nH]ncc34)nc(Nc3ccccc3)c2s1)c1ncc(C(=O)NO)cn1
100 to 1000 | Cc1ccc(-c2nc(N3CCOCC3)c3sc(CN(C)c4ncc(C(=O)NO)cn4)cc3n2)cc1
< 100 | CN(Cc1cc2nc(-c3cccc4[nH]ncc34)nc(N3CCOCC3)c2s1)c1ccc(C(=O)NO)cc1
100 to 1000 | CCCCN(Cc1cc2nc(-c3cccc4[nH]ncc34)nc(N3CCOCC3)c2s1)c1ncc(C(=O)NO)cn1
< 100 | O=C(NO)c1cc2nc(-c3cccc4[nH]ncc34)nc(N3CCOCC3)c2s1
< 100 | CN(Cc1cc2nc(-c3ccc4[nH]cnc4c3)nc(N3CCOCC3)c2s1)c1ncc(C(=O)NO)cn1
< 100 | N#CCCN(Cc1cc2nc(-c3cccc4[nH]ncc34)nc(N3CCOCC3)c2s1)c1ncc(C(=O)NO)cn1
< 100 | CN(Cc1cc2nc(-c3cnc(N)nc3)nc(N3CCOCC3)c2s1)c1ncc(C(=O)NO)cn1
100 to 1000 | O=C(NO)c1ccc(CNCc2cc3nc(-c4cccc5[nH]ncc45)nc(N4CCOCC4)c3s2)cc1
100 to 1000 | O=C(NO)c1ccc(NCc2cc3nc(-c4cccc5[nH]ncc45)nc(N4CCOCC4)c3s2)cc1
< 100 | CN(Cc1cc2nc(-c3cccc(CO)c3)nc(N3CCOCC3)c2s1)c1ncc(C(=O)NO)cn1
100 to 1000 | COCc1cccc(-c2nc(N3CCOCC3)c3sc(CN(C)c4ncc(C(=O)NO)cn4)cc3n2)c1
< 100 | CN(C)c1ncc(-c2nc(N3CCOCC3)c3sc(CN(C)c4ncc(C(=O)NO)cn4)cc3n2)cn1
100 to 1000 | CN(Cc1cc2nc(-c3ccc(O)cc3)nc(N3CCOCC3)c2s1)c1ncc(C(=O)NO)cn1
100 to 1000 | CN(Cc1cc2nc(-c3ccc(C(N)=O)cc3)nc(N3CCOCC3)c2s1)c1ncc(C(=O)NO)cn1

IC50 [nM] | SMILES
100 to 1000 | CS(=O)(=O)N1CCN(Cc2cc3nc(-c4cccc5nn(CCCCC(=O)NO)cc45)nc(N4CCOCC4)c3s2)CC1
< 100 | O=C(O)CN(Cc1cc2nc(-c3cccc4[nH]ncc34)nc(N3CCOCC3)c2s1)c1ncc(C(=O)NO)cn1
< 100 | CCN(Cc1cc2nc(-c3cccc4[nH]ncc34)nc(N3CCOCC3)c2s1)c1ncc(C(=O)NO)cn1
100 to 1000 | O=C(C=Cc1ccc(CNCc2cc3nc(-c4cccc5[nH]ncc45)nc(N4CCOCC4)c3s2)cc1)NO
< 100 | CN(Cc1cc2nc(-c3ccc(N)nc3)nc(N3CCOCC3)c2s1)c1ncc(C(=O)NO)cn1
100 to 1000 | Nc1ccc(-c2nc(N3CCOCC3)c3sc(CNCc4ccc(/C=C/C(=O)NO)cc4)cc3n2)cc1
< 100 | Cc1nc(N)ncc1-c1nc(N2CCOCC2)c2sc(CN(C)c3ncc(C(=O)NO)cn3)cc2n1
100 to 1000 | CN(CCCCC(=O)NO)Cc1cc2nc(-c3cccc4[nH]ncc34)nc(N3CCOCC3)c2s1
< 100 | CN(Cc1cc2nc(-c3cncnc3)nc(N3CCOCC3)c2s1)c1ncc(C(=O)NO)cn1
100 to 1000 | COCCN(CCOC)c1nc(-c2cccc3[nH]ncc23)nc2cc(CN(C)c3ncc(C(=O)NO)cn3)sc12
< 100 | Cc1nc2ccc(-c3nc(N4CCOCC4)c4sc(CN(C)c5ncc(C(=O)NO)cn5)cc4n3)cc2[nH]1
100 to 1000 | CN(Cc1cc2cc(-c3cccc4[nH]ncc34)nc(N3CCOCC3)c2s1)c1ncc(C(=O)NO)cn1
< 100 | O=C(CCCCCCNCc1cc2nc(-c3cccc4[nH]ncc34)nc(N3CCOCC3)c2s1)NO
100 to 1000 | COc1cccc(-c2nc(N3CCOCC3)c3sc(CN(C)c4ncc(C(=O)NO)cn4)cc3n2)c1
< 100 | CN(Cc1cc2nc(-c3cnc(C(N)=O)nc3)nc(N3CCOCC3)c2s1)c1ncc(C(=O)NO)cn1
100 to 1000 | CN(Cc1cc2nc(-c3ccc(C(F)(F)F)cc3)nc(N3CCOCC3)c2s1)c1ncc(C(=O)NO)cn1
< 100 | O=C(NO)c1ccc(NCc2cc3nc(-c4cccc5[nH]ncc45)nc(N4CCOCC4)c3s2)nc1
100 to 1000 | CC(C)(Nc1ncc(C(=O)NO)cn1)c1cc2nc(-c3cccc4[nH]ncc34)nc(N3CCOCC3)c2s1
100 to 1000 | CN(Cc1cc2nc(-c3ccc(CO)cc3)nc(N3CCOCC3)c2s1)c1ncc(C(=O)NO)cn1
100 to 1000 | O=C(CCCNCc1cc2nc(-c3cccc4[nH]ncc34)nc(N3CCOCC3)c2s1)NO
100 to 1000 | O=C(CCCCNc1cc2nc(-c3cccc4[nH]ncc34)nc(N3CCOCC3)c2s1)NO
100 to 1000 | CN(Cc1cc2nc(-c3ccc(N)c(N)c3)nc(N3CCOCC3)c2s1)c1ncc(C(=O)NO)cn1
100 to 1000 | O=C(CCCCCCNc1cc2nc(-c3cccc4[nH]ncc34)nc(N3CCOCC3)c2s1)NO
100 to 1000 | CN(Cc1cc2nc(-c3ccc4[nH]ccc4c3)nc(N3CCOCC3)c2s1)c1ncc(C(=O)NO)cn1
